Data reported in patent US20190330189A1, “ANTIBACTERIAL COMPOUNDS” (Janssen Sciences Ireland UC, priority 2015, published 2019).
In brackets after ≈: the same amount, converted by molar mass. Where two headings read alike, the source gives them in different places.

How the values were obtained:
[1] = test system: Mycobacterium tuberculosis strain H37Rv; assay: Test 1: MIC determination, resazurin fluorescence, M. tuberculosis H37Rv; format: cell-based; details: Mycobacterium tuberculosis, H37RV
[2] = test system: Mycobacterium tuberculosis strain EH 4.0 (361.269); assay: Test 4: MIC determination, resazurin fluorescence, strain EH 4.0; format: cell-based; details: for IC50: Mycobacterium tuberculosis, read-out: pIC50, Test 4, M. tuberculosis strain EH 4.0 (361.269) (converted); for pIC50: Test 4, M. tuberculosis strain EH 4.0 (361.269)
Source text: TEST 4 (See Also Test 1 Above; in this Test a Different Strain of Mycobacterium tuberculosis Strain is Employed)
Appropriate solutions of experimental and reference compounds were made in 96 well plates with 7H9 medium. Samples of Mycobacterium tuberculosis strain EH 4.0 (361.269) were taken from cultures in stationary growth phase. These were first diluted to obtain an optical density of 0.3 at 600 nm wavelength and then diluted 1/100, resulting in an inoculum of approximately 5×10 exp5 colony forming units per well. Plates were incubated at 37° C. in plastic bags to prevent evaporation. After 7 days, resazurin was added to all wells.

[3] = test system: replicating and non-replicating bacteria; details: cited from earlier work
M. tuberculosis H37Rv = details: strain M. tuberculosis H37Rv, inside macrophages; cited from earlier work
[4] = Test 1, M. tuberculosis H37Rv, first test, read-out: pIC50 (converted)
[5] = Test 1, repeated (2nd) test, read-out: pIC50 * (converted)
[6] = Test 1, repeated (3rd) test, read-out: pIC50 ** (converted)

Q: What does the source list for CCc1nc2ccc(Cl)cn2c1C(=O)NCc1ccc(N2CC3(C2)CN(c2ccc(OC(F)(F)F)cc2)C3)cc1 [Compound 4]?
A: melting point: 184.57 °C; IC50 [1, 4]: 120 nM; IC50 [2]: 5.01 nM

Q: For CCc1nc2ncc(Cl)cn2c1C(=O)NCc1ccc(N2CC3(C2)CN(c2ccc(OC(F)(F)F)cc2)C3)cc1 [Compound 5], which melting point is on record?
A: Its melting point is 242.43 °C.

Q: What about the IC50 [1, 4] of the same compound?
A: Its IC50 is 69.2 nM.

Q: What about the IC50 [1, 5] of the same compound?
A: The IC50 was 74.1 nM.

Q: What about the IC50 [1, 6] of the same compound?
A: The IC50 was 74.1 nM.

Q: What about the IC50 [2] of the same compound?
A: Its IC50 is 31.6 nM.

Q: With CCc1nc2sc(C)cn2c1C(=O)NCc1ccc(N2CC3(CCC3)C2)cc1 [Compound 12] as the compound, how does the melting point read?
A: The melting point was 300 °C.

Q: What about the IC50 [1, 4] of the same compound?
A: Its IC50 is 129 nM.

Q: What about the IC50 [1, 5] of the same compound?
A: The IC50 was 70.8 nM.

Q: And the IC50 [1, 6]?
A: Its IC50 is 107 nM.

Q: What about the IC50 [2] of the same compound?
A: The IC50 was 31.6 nM.

Q: Which results are given for CCc1nc2ncc(Cl)cn2c1C(=O)NCc1ccc(N2CC3(CC(=O)C3)C2)cc1 [Compound 126]?
A: melting point: 187.49 °C; IC50 [2]: 10000 nM; pIC50 [2]: 4.9

Q: Which melting point does the source give for Cc1nn2ccccc2c1C(=O)NCc1ccc(C2CC3(C2)CN(c2ccccc2)C3)cc1 [Compound 127] here?
A: The melting point was 201.15 °C.

Q: And the IC50 [2]?
A: Its IC50 is 126 nM.

Q: What about the pIC50 [2] of the same compound?
A: Its pIC50 is 7.0.

Q: With CCc1nc2ncc(Cl)cn2c1C(=O)NCc1ccc(C2CC3(C2)CN(C(=O)C(F)(F)F)C3)cc1 [Compound 128] as the compound, how does the melting point read?
A: Its melting point is 160.59 °C.

Q: What about the IC50 [2] of the same compound?
A: Its IC50 is 31.6 nM.

Q: Which melting point does the source give for Cc1nc2sc(Cl)cn2c1C(=O)NCc1ccc(N2CC3(CC(=O)C3)C2)cc1 [Compound 129] here?
A: Its melting point is 188.46 °C.

Q: What about the IC50 [2] of the same compound?
A: Its IC50 is 398 nM.

Q: What about the pIC50 [2] of the same compound?
A: The pIC50 was 6.5.

Q: Which melting point does the source give for CCc1nc2n(c1C(=O)NCc1ccc(N3CC4(CC(OC(F)(F)F)C4)C3)cc1)CCCC2 [Compound 130] here?
A: The melting point was 169.56 °C.

Q: And the IC50 [2]?
A: The IC50 was 15.8 nM.

Q: For CCc1nc2ncc(Cl)cn2c1C(=O)NCc1ccc(N2CC3(CC(OC(F)(F)F)C3)C2)cc1 [Compound 131], which melting point is on record?
A: The melting point was 172.76 °C.

Q: And the IC50 [2]?
A: Its IC50 is 5.01 nM.

Q: Which melting point does the source give for CCc1nc2ccc(Cl)cn2c1C(=O)NCc1ccc(C2CC3(C2)CN(c2cnccn2)C3)cc1 [Compound 132] here?
A: The melting point was 149.46 °C.

Q: What about the IC50 [2] of the same compound?
A: The IC50 was 7940 nM.

Q: For CCc1nc2ncc(Cl)cn2c1C(=O)NCc1ccc(N2CCC3(CC2)CC(F)(F)C3)cc1 [Compound 133], which melting point is on record?
A: Its melting point is 84.29 °C.

Q: What about the IC50 [2] of the same compound?
A: The IC50 was 2 nM.

Q: Which results are given for CCc1nc2ncc(Cl)cn2c1C(=O)NCc1ccc(C2CC3(C2)CN(c2cncnc2)C3)cc1 [Compound 134]?
A: melting point: 188.07 °C; IC50 [2]: 6.31 nM

Q: For CCc1nn2ccccc2c1C(=O)NCc1ccc(C2CC3(C2)CN(c2ccc(OC(F)(F)F)cc2)C3)cc1 [Compound 138], which melting point is on record?
A: The melting point was 105.98 °C.

Q: What about the IC50 [2] of the same compound?
A: Its IC50 is 39.8 nM.

Q: For CCc1nn2c(c1C(=O)NCc1ccc(C3CC4(C3)CN(c3ccc(OC(F)(F)F)cc3)C4)cc1)CCCC2 [Compound 139], which melting point is on record?
A: Its melting point is 135.21 °C.

Q: What about the IC50 [2] of the same compound?
A: Its IC50 is 7940 nM.

Q: With Cc1nn2ccccc2c1C(=O)NCC1CC2(CCN(c3ccc(OC(F)(F)F)cc3)CC2)C1 [Compound 140] as the compound, how does the melting point read?
A: Its melting point is 121.52 °C.

Q: And the IC50 [2]?
A: The IC50 was 1580 nM.

Q: Which results are given for Cc1nn2ccccc2c1C(=O)NCc1ccc(C2CC3(C2)CN(c2ccc(OC(F)(F)F)cc2)C3)cc1 [Compound 141]?
A: melting point: 158.48 °C; IC50 [2]: 31.6 nM

Q: With Cc1nn2ccccc2c1C(=O)NCc1ccc(N2CC3(C2)CN(c2ccc(OC(F)(F)F)cc2)C3)cc1 [Compound 142] as the compound, how does the melting point read?
A: Its melting point is 193.19 °C.

Q: And the IC50 [2]?
A: The IC50 was 126 nM.

Q: With Cc1nn2ccccc2c1C(=O)NCc1ccc(N2CC3(CN(F)C3)C2)cc1 [Compound 143] as the compound, how does the melting point read?
A: Its melting point is 130.31 °C.

Q: And the IC50 [2]?
A: Its IC50 is 398 nM.

Q: For CCc1nn2ccccc2c1C(=O)NCc1ccc(N2CC3(C2)CN(c2ccc(OC(F)(F)F)cc2)C3)cc1 [Compound 144], which melting point is on record?
A: The melting point was 135.8 °C.

Q: And the IC50 [2]?
A: Its IC50 is 79.4 nM.

Q: For CCc1nn2c(Cl)cccc2c1C(=O)NCc1ccc(C2CC3(C2)CN(c2ccc(OC(F)(F)F)cc2)C3)cc1 [Compound 146], which melting point is on record?
A: The melting point was 119.23 °C.

Q: And the IC50 [2]?
A: Its IC50 is 316 nM.

Q: Which results are given for CCc1nn2c(OC)cccc2c1C(=O)NCc1ccc(C2CC3(C2)CN(c2ccc(OC(F)(F)F)cc2)C3)cc1 [Compound 147]?
A: melting point: 151.74 °C; IC50 [2]: 1260 nM

Q: With CCc1nc2ncc(Cl)cn2c1C(=O)NCc1ccc(N2CC3(C2)CC(F)(F)C3)cc1 [Compound 148] as the compound, how does the melting point read?
A: The melting point was 158.14 °C.

Q: What about the IC50 [2] of the same compound?
A: Its IC50 is 15.8 nM.

Q: What does the source list for CCc1nc2ncc(Cl)cn2c1C(=O)NCc1ccc(N2CC3(CC(Oc4ccc(F)cc4)C3)C2)cc1 [Compound 152]?
A: melting point: 350 °C; IC50 [2]: 15.8 nM

Q: What does the source list for CCc1nc2ncc(Cl)cn2c1C(=O)NCc1ccc(N2CCC3(CC2)CC(OC(F)(F)F)C3)cc1 [Compound 153]?
A: melting point: 150.61 °C; IC50 [2]: 2 nM

Q: With CCc1nc2c(F)cccn2c1C(=O)NCc1ccc(C2CC3(C2)CN(c2ccc(OC(F)(F)F)cc2)C3)cc1 [Compound 157] as the compound, how does the melting point read?
A: Its melting point is 144.55 °C.

Q: What about the IC50 [2] of the same compound?
A: The IC50 was 7940 nM.

Q: What does the source list for CCc1nc2ccc(Cl)cn2c1C(=O)NCc1ccc(N2CC3(CC(c4ccnn4C)C3)C2)cc1 [Compound 158]?
A: melting point: 101.95 °C; IC50 [2]: 398 nM

Q: What does the source list for CCc1nn2ccccc2c1C(=O)NCc1ccc(C2CC3(C2)CN(c2ccc(S(F)(F)(F)(F)F)cc2)C3)cc1 [Compound 159]?
A: melting point: 177.08 °C; IC50 [2]: 39.8 nM

Q: For Cc1nn2ccccc2c1C(=O)NCc1ccc(C2CC3(C2)CN(c2ccc(S(F)(F)(F)(F)F)cc2)C3)cc1 [Compound 160], which melting point is on record?
A: Its melting point is 166.29 °C.

Q: What about the IC50 [2] of the same compound?
A: The IC50 was 31.6 nM.

Q: With CCc1nn2ccccc2c1C(=O)NCc1ccc(N2CC3(CC(c4ccc(OC(F)(F)F)cc4)C3)C2)cc1 [Compound 161] as the compound, how does the melting point read?
A: The melting point was 126.57 °C.

Q: What about the IC50 [2] of the same compound?
A: The IC50 was 2510 nM.

Q: With Cc1nn2ccccc2c1C(=O)NCc1ccc(N2CC3(C2)CN(c2ccc(S(F)(F)(F)(F)F)cc2)C3)cc1 [Compound 162] as the compound, how does the melting point read?
A: The melting point was 238.06 °C.

Q: What about the IC50 [2] of the same compound?
A: Its IC50 is 7940 nM.

Q: Which results are given for CCc1nc2ccc(Cl)cn2c1C(=O)NCc1ccc(N2CC3(CCC3)C2)cc1 [Compound 163]?
A: melting point: 142.39 °C; IC50 [2]: 7940 nM

Q: What does the source list for CCc1nc2ccc(Cl)cn2c1C(=O)NCC1CC2(C1)CN(c1ccc(OC(F)(F)F)cc1)C2 [Compound 164]?
A: melting point: 165.12 °C; IC50 [2]: 7940 nM

Q: What does the source list for CCc1nn2ccccc2c1C(=O)NCC1CC2(C1)CN(c1ccc(OC(F)(F)F)cc1)C2 [Compound 165]?
A: melting point: 150.69 °C; IC50 [2]: 7940 nM

Q: With CCc1nc2ccc(Cl)cn2c1C(=O)NCc1ccc(N2CCC(c3ccc(OC(F)(F)F)cc3)CC2)cc1 [Compound Q203, Q203] as the compound, how does the “activity against replicating and non-replicating bacteria” value [3] read?
A: Its value is “highly active”.

Q: And the MIC50 (M. tuberculosis H37Rv)?
A: The MIC50 was 0.28 nM (≈ 0.156 ng/mL).
